Values quoted from earlier work, collected in patent publication US20180000827A1 (SYNTHON B.V., priority 2014, published 2018).

In the case of COc1cc2ncnc(Nc3ccc(F)c(Cl)c3)c2cc1OCCCN1CCOCC1 [Gefitinib, 4-(3-chloro-4-fluorophenylamino)-7-methoxy-6-[3-(4-morpholinyl)propoxy] quinazoline], the “solubility dependence on pH” value is given as “highly dependent upon pH”.
